Results reported in article PMC6154579, “Anti-Melanogenic Properties of Greek Plants. A Novel Depigmenting Agent from Morus alba Wood” (Molecules : A Journal of Synthetic Chemistry and Natural …, 2017).
Several values for one entry are separate records, joined by “and”; a condition that tells them apart may be missing. Equal values may be shown once. Entries after “also recorded” stand apart in the source; their conditions may differ. Read-outs that look alike come from different tables or passages of the source.

Assays:
B16F10 cells = assay: MTT cytotoxicity assay; format: cell-based, Mouse; conditions: high concentrations
Experimental: Mouse skin melanoma (B16F10) cells were obtained from the American Tissue Culture Collection (Manassas, VA, USA) and were maintained in Dulbecco's modified Eagle’s medium (Gibco, Thermo Fischer Scientific, Waltham, MA, USA), supplemented with 10% (v/v) fetal bovine serum (Gibco, Thermo Fischer Scientific) and 2 mM glutamine (Gibco, Thermo Fischer Scientific) in a humidified incubator at 5% CO2 and 37 °C.
MTT cytotoxicity assay was performed as described previously. Briefly, B16F10 cells were cultured at 96-wellmicroplates (5000 cells/well). After 24 h the cells were treated with different concentrations of the extracts (in control cells an appropriate amount of DMSO was added). The MTT solution (MTT, Sigma-Aldrich) (1 mg/mL in serum free, phenol red free medium) was added 48 h after the addition of test extracts. After 4 h, the MTT solution was discarded and isopropanol was added to dissolve the formazan crystals. Absorbance was recorded at 570 nm using a microplate reader (EZ Read 400 ELISA microplate reader, Biochrom, Cambridge, UK). Survival of non-treated cells was set to 100%.

mushroom tyrosinase = target: T1, mushroom tyrosinase (Agaricus bisporus, UniProt C7FF04); assay: Tyrosinase inhibition assay (oxidation of L-DOPA, diphenolase activity); format: biochemical; conditions: for inhibition at 60 µM: read-out: Tyrosinase Inhibition % ± STD (60 μM); for inhibition at 300 µM: read-out: Tyrosinase Inhibition % ± STD (300 μM); for fold more potent tyrosinase inhibition than kojic acid: ratio of IC50 values vs reference kojic acid;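 on all read-outs here: dopachrome formation from L-DOPA by mushroom tyrosinase in phosphate buffer, compound preincubated with enzyme 10 min at 25 °C, inhibition versus sample-free control, enzyme-free blanks subtracted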
T1 construct: purchased Sigma-Aldrich

zebrafish embryos = assay: In vivo inhibition of melanogenesis assay; conditions: embryos treated 24 to 48 hpf, ranking: most potent, followed by, weakest, Figure 5: MAM 70, F33 70, F38-42 10, F43 10, 1/5/6/7 50, 2 7, 11 10 μg/mL
[1] = compound at 60 μM, two independent experiments
[2] = compound at 300 μM, two independent experiments
[3] = diphenolase activity, three independent experiments, read-out: Tyrosinase Inhibition IC50 ± STD

T1 sequence (C7FF04 1-392 limits assumed): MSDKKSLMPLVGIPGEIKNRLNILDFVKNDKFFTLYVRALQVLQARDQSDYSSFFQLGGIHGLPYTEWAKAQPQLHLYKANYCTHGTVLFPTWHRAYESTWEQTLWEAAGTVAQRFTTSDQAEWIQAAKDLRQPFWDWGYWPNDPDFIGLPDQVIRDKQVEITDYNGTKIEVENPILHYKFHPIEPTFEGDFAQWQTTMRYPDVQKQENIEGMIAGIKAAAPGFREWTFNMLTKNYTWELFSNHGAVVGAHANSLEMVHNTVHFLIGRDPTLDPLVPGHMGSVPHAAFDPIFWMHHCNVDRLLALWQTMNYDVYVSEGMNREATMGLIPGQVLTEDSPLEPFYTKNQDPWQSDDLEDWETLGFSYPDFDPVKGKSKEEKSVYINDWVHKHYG

Structure (SMILES)	inhibition at 60 µM (mushroom tyrosinase; [1]) [%]	inhibition at 300 µM (mushroom tyrosinase; [2]) [%]	melanogenesis inhibition on zebrafish embryos (in words) (zebrafish embryos)	IC50 (mushroom tyrosinase) [µM]	further results
Oc1cccc(CCc2ccc(O)cc2O)c1 [2,4,3′-Trihydroxydihydrostilbene (7), 2,4,3′-Trihydroxydihydrostilbene]	96.3 ± 0.5	97.8 ± 0.1	significantly suppress in vivo melanogenesis; also recorded: most potent; also recorded: significantly suppressed in vivo melanogenesis		cytotoxicity in cells (in words) (B16F10 cells): non-cytotoxic in high concentrations; IC50 (mushroom tyrosinase; [3]): 0.8 ± 0.15 µM; fold more potent tyrosinase inhibition than kojic acid (mushroom tyrosinase): ~ 20 fold and 20 fold
O=Cc1ccc(O)cc1O [2,4-Dihydroxybenzaldehyde (9), 2,4-dihydroxybenzaldehyde]		4.9 ± 0.3			
Oc1cc(O)cc(CCc2ccc(O)cc2O)c1 [Dihydrooxyresveratrol (5), Dihydrooxyresveratrol]				0.3 ± 0.05	fold more potent tyrosinase inhibition than kojic acid (mushroom tyrosinase): ~ 50 fold; inhibition at 60 µM (mushroom tyrosinase): 97.6 ± 0.2%; inhibition at 300 µM (mushroom tyrosinase): 98.2 ± 0.5%; melanogenesis inhibition on zebrafish embryos (in words) (zebrafish embryos; listed as dihydrooxyresveratrol): only partially inhibited the melanogenesis
CC(C)=CCc1c(-c2ccc(O)cc2O)oc2c(CC=C(C)C)c(O)cc(O)c2c1=O [Kuwanon C (2), kuwanon C]	46.5 ± 1.3	75.6 ± 1.2	weakest inhibitor of melanogenesis	76.2 ± 1.1	
CC(C)=CCc1c(-c2ccc(O)cc2O)oc2c(C3C=C(C)CC(c4ccc(O)cc4O)C3C(=O)c3ccc(O)cc3O)c(O)cc(O)c2c1=O (stereo not drawn) [Kuwanon G (12), kuwanon G]				27.5 ± 1.2	inhibition at 60 µM (mushroom tyrosinase): 59.1 ± 1.4%; inhibition at 300 µM (mushroom tyrosinase): 77.8 ± 2.8%
CC(C)=CCc1c(O)ccc(C(=O)C2C(c3c(O)cc(O)c4c(=O)c(CC=C(C)C)c(-c5ccc(O)cc5O)oc34)C=C(C)CC2c2ccc(O)cc2O)c1O (stereo not drawn) [Kuwanon H (8), kuwanon H]	46 ± 2.9	49 ± 2.6		> 100	
Oc1cc(O)cc(-c2cc3ccc(O)cc3o2)c1 [Moracin M (11), moracin M]	61.3 ± 1.2	87.2 ± 0.5		8 ± 0.6	
CC(C)=CCc1c(-c2ccc(O)cc2O)oc2c3c(cc(O)c2c1=O)OC(C)(C)C=C3 [Morusin (10), morusin]	31 ± 3.2	49.9 ± 2.2		> 100	
OC[C@H]1O[C@@H](Oc2cc(O)cc(/C=C/c3ccc(O[C@@H]4O[C@H](CO)[C@@H](O)[C@H](O)[C@H]4O)cc3O)c2)[C@H](O)[C@@H](O)[C@@H]1O [Mulberroside A (3), mulberroside A]	43.1 ± 0.7	58.3 ± 1.4		> 100	
Oc1cc(O)cc(/C=C/c2ccc(O)cc2O)c1 [Oxyresveratrol (1), oxyresveratrol]			significantly suppress in vivo melanogenesis; also recorded: most potent		
Oc1cccc(O)c1 [Resorcinol (4), resorcinol]	38 ± 1.1	60.4 ± 1		163 ± 18.2	
O=C1c2c(O)cc(O)cc2OC(c2ccc(O)cc2O)C1O (stereo not drawn) [trans-Dihydromorin (6), trans-dihydromorin]	73.1 ± 0.6	94.3 ± 0.1	significantly suppress in vivo melanogenesis; also recorded: most potent		IC50 (mushroom tyrosinase; [3]): 9.4 ± 1.3 µM
